One test concerns HCT-116. Description: Cytotoxicity against human HCT-116 cells assessed as reduction in cell viability incubated for 24 hrs by MTT assay. Type of test: functional, cell-based. As to conditions: HCT-116, 24 h. A general note: Tetrazolium assays rely on reduction of a dye to a coloured formazan, in cell work by metabolically active cells.
The subject of test [1] is HepG2. The test can be described thus: Cytotoxicity against human HepG2 cells assessed as reduction in cell viability incubated for 24 hrs by MTT assay. The conditions noted are these: HepG2, 24 h. Type of test: functional, cell-based.
The test system of test [2] is MCF7. Description: Cytotoxicity against human MCF7 cells assessed as reduction in cell viability incubated for 24 hrs by MTT assay. The class given is functional, cell-based. As to conditions: MCF7, 24 h.
The test system of test [3] is A549. The test can be described thus: Cytotoxicity against human A549 cells assessed as reduction in cell viability incubated for 24 hrs by MTT assay. The class given is functional, cell-based. As to conditions: A549, 24 h.
The subject of test [4] is HeLa. Description: Growth inhibition of human HeLa cells by SRB assay. The class given is functional.
In a further test the test system is HCT 116 TP53(-/-). Description: Antiproliferative activity against human HCT116-p53-null cells assessed as reduction in cell viability by MTT assay. The class given is functional, cell-based.
Test [5] has as its system MDA-MB-231. The test can be described thus: Cytotoxicity against human MDA-MB-231 cells assessed as reduction in cell growth measured for 48 hrs by MTT assay. Type of test: functional, cell-based. As to conditions: MDA-MB-231, 48 h.
For test [6], the system named is MDA-MB-231. The test can be described thus: Cytotoxicity against human MDA-MB-231 cells assessed as reduction in cell viability incubated for 48 hrs by MTT assay. The class given is functional, cell-based. As to conditions: MDA-MB-231, 48 h.
The subject of a further test is UO-31. Description: Growth inhibition of human UO-31 cells at 10 uM by SRB assay relative to control. Type of test: functional. The conditions noted are these: read-out: GI. A general note: In SRB staining, fixed cells bind dye roughly in proportion to their protein.
For another test, the system named is CCRF-CEM. Description: Growth inhibition of human CCRF-CEM cells at 10 uM by SRB assay relative to control. The class given is functional. The conditions noted are these: read-out: GI.
The test system of the next test is HOP-62. The test can be described thus: Growth inhibition of human HOP-62 cells at 10 uM by SRB assay relative to control. The conditions noted are these: read-out: GI. The class given is functional.
The next test concerns A498. The test can be described thus: Growth inhibition of human A498 cells at 10 uM by SRB assay relative to control. The class given is functional. As to conditions: read-out: GI.
Another test deals with HOP-92. The test can be described thus: Growth inhibition of human HOP-92 cells at 10 uM by SRB assay relative to control. As to conditions: read-out: GI. Type of test: functional.
Test [7] concerns MCF7. Description: Cytotoxicity against human MCF7 cells assessed as reduction in cell growth by MTT assay. The class given is functional, cell-based.
Test [8] relates to HepG2. Description: Cytotoxicity against human HepG2 cells assessed as reduction in cell growth by MTT assay. The class given is functional, cell-based.
Test [9] has as its system A549. Description: Cytotoxicity against human A549 cells assessed as reduction in cell growth by MTT assay. The class given is functional, cell-based.
The subject of another test is PC-3. Description: Cytotoxicity against human PC-3 cells assessed as reduction in cell growth measured for 48 hrs by MTT assay. Type of test: functional, cell-based. The conditions noted are these: PC-3, 48 h.
Another test has as its system DU-145. Description: Cytotoxicity against human DU-145 cells assessed as reduction in cell growth measured for 48 hrs by MTT assay. Type of test: functional, cell-based. The conditions noted are these: DU-145, 48 h.
Test [10] can be described thus: Cytotoxicity against human HEp-2C cells assessed as reduction in cell viability incubated for 72 hrs by MTT assay. The class given is functional, cell-based. The conditions noted are these: Hep2C.
In test [11] the test system is HeLa. Description: Anticancer activity against human HeLa cells assessed as reduction in cell growth incubated for 48 hrs by MTT assay. The class given is functional, cell-based.
Test [12] concerns MCF7. Description: Anticancer activity against human MCF7 cells assessed as reduction in cell growth incubated for 48 hrs by MTT assay. As to conditions: MCF7, 48 h. Type of test: functional, cell-based.
The next test deals with TK-10. Description: Growth inhibition of human TK-10 cells at 10 uM by SRB assay relative to control. The class given is functional. The conditions noted are these: read-out: GI.
The test system of the next test is Hs-578T. The test can be described thus: Growth inhibition of human Hs-578T cells at 10 uM by SRB assay relative to control. Type of test: functional. As to conditions: read-out: GI.
Another test concerns CAKI-1. The test can be described thus: Growth inhibition of human CAKI-1 cells at 10 uM by SRB assay relative to control. Type of test: functional. As to conditions: read-out: GI.
Test [13] concerns A549. The test can be described thus: Antiproliferative activity against human A549 cells assessed as reduction in cell viability by MTT assay. The class given is functional, cell-based.
The next test concerns NCI-H460. The test can be described thus: Antiproliferative activity against human NCI-H460 cells assessed as reduction in cell viability by MTT assay. Type of test: functional, cell-based.
Test [14] deals with A549. The test can be described thus: Anticancer activity against human A549 cells assessed as reduction in cell growth incubated for 48 hrs by MTT assay. The conditions noted are these: A549, 48 h. Type of test: functional, cell-based.

pIC50: −log10 of the molar value. Values after ≈ are worked out from the molar mass of the structure shown. Where only a bound is given, the exact number is not on record here.

In the case of `N#CC1=C(N)Oc2c(ccc3cccnc23)C1c1ccc(Br)cc1` (configuration not stated), the IC50 (usually the concentration that gives 50% inhibition) in the test with HCT-116 was determined as 1.3 µg/mL (≈ 3.44 µM); in the test on HepG2 [1] it was 1.41 µg/mL (≈ 3.73 µM); in the test on MCF7 [2], 1.17 µg/mL (≈ 3.09 µM); in the test on A549 [3], 38 µg/mL (≈ 100 µM).
With `CC(=O)NC1=NN(C(C)=O)C(c2cc3cc(Br)ccc3n3nnnc23)S1` (configuration not stated), the 50% growth inhibitory concentration (GI50) (as a rule, the concentration that inhibits growth by half) in the test on HeLa [4] is less than 0.1 µM.
Same read-out and setting: under `CC(=O)NC1=NN(C(C)=O)C(c2cc3cc(Cl)ccc3n3nnnc23)S1` (configuration not stated) stands less than 0.1 µM.
On to `N#CC1=C(N)Oc2c(cc(Cl)c3cccnc23)C1c1ccc(Br)cc1` (configuration not stated), for which the IC50 was 5.81 µg/mL (≈ 14.1 µM) in the test with HCT-116, 1.23 µg/mL (≈ 2.98 µM) with HepG2 [1], 0.99 µg/mL (≈ 2.4 µM) in the test on MCF7 [2] and 3.1 µg/mL (≈ 7.51 µM) in the test on A549 [3].
Take `Cc1ccc2ccc3c(c2n1)OC(N)=C(C#N)C3c1cccc(Cl)c1Cl` (configuration not stated): the results for the IC50 in the test on HepG2 [1] and with MCF7 [2] were 1.83 µg/mL (≈ 4.79 µM) and 1.24 µg/mL (≈ 3.24 µM), respectively.
In the case of `O=[N+]([O-])c1c(Nc2ccc(F)c(Cl)c2)nc2ccccc2c1Nc1ccc(F)c(Cl)c1`, the pIC50 (usually the IC50 on a negative log10 scale, so that one unit is a factor of ten) in the test on HCT 116 TP53(-/-) was 5.29.
Take `O=C1N(c2ccc([N+](=O)[O-])cc2[N+](=O)[O-])c2[nH]c(=O)[nH]c(=O)c2C12c1ccccc1Nc1c2[nH]c(=O)[nH]c1=O` (configuration not stated): the pIC50 in the test with MDA-MB-231 [5] was 4.97.
Turning to `COc1ncc(-c2cc(-c3cn(Cc4ccccc4F)nn3)cc3ccc(C)nc23)cc1F`, the pIC50 in the test on MDA-MB-231 [6] is 4.69.
Take `Cc1cc(=O)n(C(=O)Nc2ccc(F)c(Cl)c2)c2cc(O)ccc12`: the inhibition of growth at 10 µM in the test on UO-31 came to 30%; in the test with CCRF-CEM it was 58.6%; in the test on HOP-62, 17.6%; in the test with A498, 20.5%; in the test with HOP-92 it was 27.4%.
On to `COc1ccc(Nc2nc3ccccc3c(NCc3ccccc3Cl)c2[N+](=O)[O-])cc1`, for which, in the test on HCT 116 TP53(-/-), the pIC50 was 5.32.
Take `N#CC1C(=S)N=C2C(=C1c1ccc(F)cc1)CCC/C2=C\c1ccc(F)cc1` (configuration not stated): the figures for the half-inhibitory concentration (IC50) with MCF7 [7], in the test on HepG2 [8] and in the test on A549 [9] were 13.1 µg/mL (≈ 33.7 µM), 11.2 µg/mL (≈ 28.8 µM) and 28.4 µg/mL (≈ 72.9 µM), respectively.
Turning to `O=C1N(c2ccc(Cl)cc2)c2[nH]c(=O)[nH]c(=O)c2C12c1ccccc1Nc1c2[nH]c(=O)[nH]c1=O` (configuration not stated), the figures for the negative-log IC50 (pIC50) in the test on PC-3 and in the test on DU-145 were 4.70 and 4.78, respectively.
In the case of `Clc1cccc(NCN2CCCc3ccccc32)c1`, the pIC50 in test [10] was 4.92.
In the case of `COc1cccc(-n2nnc3c2-c2ccc4cccnc4c2OC3)c1`, the results for the pIC50 in the test on HeLa [11] and in the test with MCF7 [12] were 4.80 and 4.50, respectively.
Turning to `Cc1cc(=O)n(C(=O)Nc2ccccc2)c2cc(O)ccc12`, the inhibition of growth at 10 µM with TK-10 came to 82.9%; in the test with UO-31 it was 23.1%; with Hs-578T it was 11.5%; in the test on CAKI-1 it was 12.4%; in the test with HOP-92, 16%.
For the compound `COc1ccccc1Nc1nc2ccccc2c(Nc2ccccc2OC)c1[N+](=O)[O-]`, the pIC50 is 5.19 with A549 [13] and 5.27 in the test on NCI-H460.
With `Cc1cc(C)cc(-n2nnc3c2-c2ccc4cccnc4c2OC3)c1`, the pIC50 is 4.94 with HeLa [11], 4.77 in the test with MCF7 [12] and 4.49 in the test with A549 [14].
Consider `O=C1N(c2cccnc2)c2[nH]c(=O)[nH]c(=O)c2C12c1ccccc1Nc1c2[nH]c(=O)[nH]c1=O` (configuration not stated), for which the results for the negative-log IC50 (pIC50) with PC-3, with MDA-MB-231 [5] and in the test on DU-145 were 4.81, 5.10 and 4.83, respectively.
On to `Cc1ccc2ccc3c(c2n1)OC(N)=C(C#N)C3c1cccc(Cl)c1` (configuration not stated), for which the 50% inhibitory concentration (IC50) in the test with HepG2 [1] is 3.01 µg/mL (≈ 8.65 µM); with MCF7 [2], 5.79 µg/mL (≈ 16.6 µM).
Take `N#CC1C(=S)N=C2C(=C1c1ccc(Cl)cc1)CCC/C2=C\c1ccc(Cl)cc1` (configuration not stated): the IC50 in the test with MCF7 [7] turned out to be 3.17 µg/mL (≈ 7.49 µM); with HepG2 [8], 2.86 µg/mL (≈ 6.76 µM); with A549 [9], 25.5 µg/mL (≈ 60.3 µM).
